The experiment has as its target T1, odorant-binding protein 14 (OBP14) (Apis mellifera, UniProt A0A8U0WQC3).
T1 construct: recombinant OBP14, cloning, expression and purification in supplement; immobilised via PBSE linker on reduced graphene oxide FET gate
T1 sequence (A0A8U0WQC3 17-135): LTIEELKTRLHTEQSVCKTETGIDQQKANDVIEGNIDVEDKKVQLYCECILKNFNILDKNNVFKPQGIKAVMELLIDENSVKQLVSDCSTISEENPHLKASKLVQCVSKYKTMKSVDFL
Nature of the experiment: rGO-FET biosensor, real-time source-drain current, global Langmuir analysis. The text has this: rGO-FET biosensor, real-time source-drain current, global Langmuir analysis on odorant-binding protein 14 (OBP14)

Read-outs that look alike come from different tables or passages of the source.

As for `CC(C)=CCC/C(C)=C/CO` [Geraniol], the Kd (read-out: Geraniol) was determined as 3300 µM.
As for `C=CCc1ccc(O)c(OC)c1` [Eugenol], the Kd (read-out: Eugenol) was 40 µM.
As for `COc1cc(CC(=O)O)ccc1O` [Homovanillic acid], the Kd (read-out: Homovanillic acid) is 4 µM.
For `COC(=O)c1ccc(O)c(OC)c1` [Methyl vanillate], the Kd (read-out: Methyl vanillate) came out at 20 µM.
On to `CC(C)=CCCC(C)=CC=O` [Citral], for which, where the note is “read-out: Citral”, the Kd was determined as 800 µM.
Take `C=CCc1ccc(OC)c(OC)c1` [Methyl eugenol]: for the setting “read-out: Methyl eugenol”, the Kd was found to be 1400 µM.

For the origin of these results see publication PMC4768645, “Electronic Olfactory Sensor Based on A. mellifera Odorant‐Binding Protein 14 on a Reduced Graphene Oxide Field‐Effect Transistor” (Angewandte Chemie (International Ed. in English), 2015).
